Assay: xn = mol fraction of the nth substance listed
Conditions: for mass density: Liquid; for surface tension liquid-gas: Pendant drop shape

CC(C)=O [acetone] + Cc1ccccc1
Conditions | mass density [kg/m3] | surface tension liquid-gas [mN/m]
283.15 K, x2 = 0 | 803.2 | –
283.15 K, x2 = 0.1 | 815.1 | –
283.15 K, x2 = 0.2002 | 823.5 | –
283.15 K, x2 = 0.3002 | 832.2 | –
283.15 K, x2 = 0.3997 | 841.2 | –
283.15 K, x2 = 0.4973 | 847.6 | –
283.15 K, x2 = 0.6011 | 854.7 | –
283.15 K, x2 = 0.7004 | 860.8 | –
283.15 K, x2 = 0.7998 | 866.4 | –
283.15 K, x2 = 0.8982 | 871.5 | –
287.81 K, x2 = 0 | – | 23.94
287.81 K, x2 = 0.1 | – | 24.56
287.81 K, x2 = 0.2002 | – | 25.24
287.81 K, x2 = 0.3002 | – | 25.89
287.81 K, x2 = 0.3997 | – | 26.46
287.81 K, x2 = 0.4973 | – | 27.1
287.81 K, x2 = 0.6011 | – | 27.68
287.81 K, x2 = 0.7004 | – | 28.24
287.81 K, x2 = 0.7998 | – | 28.48
287.81 K, x2 = 0.8982 | – | 28.73
288.15 K, x2 = 0 | 798.2 | –
288.15 K, x2 = 0.1 | 809.8 | –
288.15 K, x2 = 0.2002 | 818.2 | –
288.15 K, x2 = 0.3002 | 826.8 | –
288.15 K, x2 = 0.3997 | 836.1 | –
288.15 K, x2 = 0.4973 | 842.6 | –
288.15 K, x2 = 0.6011 | 849.9 | –
288.15 K, x2 = 0.7004 | 856 | –
288.15 K, x2 = 0.7998 | 861.7 | –
288.15 K, x2 = 0.8982 | 866.9 | –
293.15 K, x2 = 0 | 792.6 | –
293.15 K, x2 = 0.1 | 804.2 | –
293.15 K, x2 = 0.2002 | 812.5 | –
293.15 K, x2 = 0.3002 | 821.4 | –
293.15 K, x2 = 0.3997 | 830.7 | –
293.15 K, x2 = 0.4973 | 837.3 | –
293.15 K, x2 = 0.6011 | 844.6 | –
293.15 K, x2 = 0.7004 | 850.9 | –
293.15 K, x2 = 0.7998 | 856.6 | –
293.15 K, x2 = 0.8982 | 861.9 | –
297.82 K, x2 = 0 | – | 22.78
297.82 K, x2 = 0.1 | – | 23.28
297.82 K, x2 = 0.2002 | – | 23.78
297.82 K, x2 = 0.3002 | – | 24.36
297.82 K, x2 = 0.3997 | – | 24.93
297.82 K, x2 = 0.4973 | – | 25.55
297.82 K, x2 = 0.6011 | – | 26
297.82 K, x2 = 0.7004 | – | 26.5
297.82 K, x2 = 0.7998 | – | 27.1
297.82 K, x2 = 0.8982 | – | 27.33
298.15 K, x2 = 0 | 787 | –
298.15 K, x2 = 0.1 | 798.8 | –
298.15 K, x2 = 0.2002 | 807.1 | –
298.15 K, x2 = 0.3002 | 816.1 | –
298.15 K, x2 = 0.3997 | 825.6 | –
298.15 K, x2 = 0.4973 | 832.3 | –
298.15 K, x2 = 0.6011 | 839.7 | –
298.15 K, x2 = 0.7004 | 846.1 | –
298.15 K, x2 = 0.7998 | 851.9 | –
298.15 K, x2 = 0.8982 | 857.3 | –
303.15 K, x2 = 0 | 781.2 | –
303.15 K, x2 = 0.1 | 793.3 | –
303.15 K, x2 = 0.2002 | 801.6 | –
303.15 K, x2 = 0.3002 | 810.8 | –
303.15 K, x2 = 0.3997 | 820.4 | –
303.15 K, x2 = 0.4973 | 827.2 | –
303.15 K, x2 = 0.6011 | 834.7 | –
303.15 K, x2 = 0.7004 | 841.3 | –
303.15 K, x2 = 0.7998 | 847.2 | –
303.15 K, x2 = 0.8982 | 852.6 | –
307.86 K, x2 = 0 | – | 21.59
307.86 K, x2 = 0.1 | – | 22.08
307.86 K, x2 = 0.2002 | – | 22.58
307.86 K, x2 = 0.3002 | – | 23.1
307.86 K, x2 = 0.3997 | – | 23.77
307.86 K, x2 = 0.4973 | – | 24.4
307.86 K, x2 = 0.6011 | – | 25
307.86 K, x2 = 0.7004 | – | 25.4
307.86 K, x2 = 0.7998 | – | 26
307.86 K, x2 = 0.8982 | – | 26.24
308.15 K, x2 = 0 | 775.4 | –
308.15 K, x2 = 0.1 | 787.7 | –
308.15 K, x2 = 0.3002 | 805.5 | –
308.15 K, x2 = 0.3997 | 815.1 | –
308.15 K, x2 = 0.4973 | 822.1 | –
308.15 K, x2 = 0.6011 | 829.7 | –
308.15 K, x2 = 0.7004 | 836.4 | –
308.15 K, x2 = 0.7998 | 842.4 | –
308.15 K, x2 = 0.8982 | 847.9 | –
313.15 K, x2 = 0 | 769.6 | –
313.15 K, x2 = 0.1 | 782 | –
313.15 K, x2 = 0.2002 | 790.4 | –
313.15 K, x2 = 0.3002 | 800.1 | –
313.15 K, x2 = 0.3997 | 809.7 | –
313.15 K, x2 = 0.4973 | 816.9 | –
313.15 K, x2 = 0.6011 | 824.7 | –
313.15 K, x2 = 0.7004 | 831.4 | –
313.15 K, x2 = 0.7998 | 837.6 | –
313.15 K, x2 = 0.8982 | 843.2 | –
317.86 K, x2 = 0 | – | 20.33
317.86 K, x2 = 0.1 | – | 20.9
317.86 K, x2 = 0.2002 | – | 21.44
317.86 K, x2 = 0.3002 | – | 22.18
317.86 K, x2 = 0.3997 | – | 22.67
317.86 K, x2 = 0.4973 | – | 23.25
317.86 K, x2 = 0.6011 | – | 24.11
317.86 K, x2 = 0.7004 | – | 24.4
317.86 K, x2 = 0.7998 | – | 24.99
317.86 K, x2 = 0.8982 | – | 25.2
318.15 K, x2 = 0 | 762.5 | –
318.15 K, x2 = 0.1 | 776.2 | –
318.15 K, x2 = 0.2002 | 784.6 | –
318.15 K, x2 = 0.3002 | 794.6 | –
318.15 K, x2 = 0.3997 | 804.2 | –
318.15 K, x2 = 0.4973 | 811.6 | –
318.15 K, x2 = 0.6011 | 819.5 | –
318.15 K, x2 = 0.7004 | 826.4 | –
318.15 K, x2 = 0.7998 | 832.7 | –
318.15 K, x2 = 0.8982 | 838.4 | –
323.15 K, x2 = 0 | 756.2 | –
323.15 K, x2 = 0.1 | 770.2 | –
323.15 K, x2 = 0.2002 | 778.9 | –
323.15 K, x2 = 0.3002 | 789.1 | –
323.15 K, x2 = 0.3997 | 798.6 | –
323.15 K, x2 = 0.4973 | 806.3 | –
323.15 K, x2 = 0.6011 | 814.4 | –
323.15 K, x2 = 0.7998 | 827.7 | –
323.15 K, x2 = 0.8982 | 833.6 | –
327.88 K, x2 = 0 | – | 19.01
327.88 K, x2 = 0.1 | – | 19.74
327.88 K, x2 = 0.2002 | – | 20.32
327.88 K, x2 = 0.3002 | – | 21.07
327.88 K, x2 = 0.3997 | – | 21.8
327.88 K, x2 = 0.4973 | – | 22.2
327.88 K, x2 = 0.6011 | – | 22.97
327.88 K, x2 = 0.7004 | – | 23.56
327.88 K, x2 = 0.7998 | – | 23.83
327.88 K, x2 = 0.8982 | – | 24.14
328.15 K, x2 = 0 | 749.3 | –
328.15 K, x2 = 0.1 | 764 | –
328.15 K, x2 = 0.2002 | 773.2 | –
328.15 K, x2 = 0.3002 | 783.5 | –
328.15 K, x2 = 0.3997 | 792.9 | –
328.15 K, x2 = 0.4973 | 801 | –
328.15 K, x2 = 0.6011 | 809.2 | –
328.15 K, x2 = 0.7004 | 816.3 | –
328.15 K, x2 = 0.7998 | 822.8 | –
328.15 K, x2 = 0.8982 | 828.7 | –
333.15 K, x2 = 0 | 742.3 | –
333.15 K, x2 = 0.1 | 757.3 | –
333.15 K, x2 = 0.2002 | 767.5 | –
333.15 K, x2 = 0.3002 | 778.1 | –
333.15 K, x2 = 0.3997 | 787.3 | –
333.15 K, x2 = 0.4973 | 795.6 | –
333.15 K, x2 = 0.6011 | 803.9 | –
333.15 K, x2 = 0.7004 | 811.2 | –
333.15 K, x2 = 0.7998 | 817.8 | –
333.15 K, x2 = 0.8982 | 823.8 | –

Source: the NIST ThermoML archive (doi:10.1021/je034062r)
